Consider 1 compound from patent US9643995B2, “Triterpene glycoside and triterpene compositions and methods of using same” (Research Foundation of the City University of New York, priority 2013, dated 2017).

Values after ≈ are worked out from the molar mass of the structure shown.

Data set [1] has as its system MDA-MB-453 cells. Briefly: Apoptosis: DNA fragmentation. In kind it is cell-based, human. Conditions: actein 2 μg/ml, Herceptin 16 μg/ml, 48 h.
The conditions of data set [2]: rat, in vivo, 35.7 mg/kg; cited from earlier work.
The subject of another data set is calcium channels. The experiment in a line: Calcium release from cells. The class given is cell-based. Conditions: low concentrations (100 nM); stated as believed mode of action.
Data set [3] concerns MDA-MB-453 cells. Briefly: Apoptosis: caspase 3 activity. The class given is cell-based, human. Particulars: actein 2 μg/ml, Herceptin 16 μg/ml, 48 h.
Another data set relates to activated Her2 (p-Her2). Briefly: Western blot analysis of activated Her2 protein level. Conditions: 40 μg/ml, 24 h, normalized to β-acetin. In kind it is cell-based. From the text: (§1) Effect of actein on the level of Her2 protein: The effect of actein on the level of Her2 and activated Her2 (p-Her2) protein was examined using Western blot analysis. […] The results validate an effect of actein on the Her2 pathway.

The subject of a further data set is Her2. Briefly: Western blot analysis of Her2 protein level. In kind it is cell-based. Conditions: 40 μg/ml, 24 h, normalized to β-acetin.
Excerpt: as §1
Background: A western blot detects proteins with antibodies after separation by electrophoresis.

In the next data set the test system is MCF10F. The experiment in a line: Growth inhibition of nonmalignant mammary epithelial cells by actein. In kind it is cell-based, human.

One may read the IC50 as the point on the concentration scale where inhibition reaches its midpoint. A lower IC50 goes with inhibition by little substance. Consider `CC(=O)O[C@@H]1C[C@@]23C[C@@]24CC[C@H](O[C@@H]2OC[C@@H](O)[C@H](O)[C@H]2O)C(C)(C)[C@@H]4CC[C@H]3[C@]2(C)C[C@@H]3O[C@]4(C[C@@H](C)[C@@H]3[C@@]12C)O[C@H](O)[C@@]1(C)O[C@@H]41` [actein, Actein], for which the DNA fragmentation in the data set with MDA-MB-453 cells [1] is reported as 0.89 fold relative to control. In data set [2], the peak serum level result was “about 2.4 μg/ml” and the “time of peak serum level” value is 6 h. Besides, the “effect on calcium channels” value in the data set on calcium channels was “immediately opens calcium channels and releases calcium from cells”. Also, the “caspase 3 activity” value with MDA-MB-453 cells [3] is 1.29 fold relative to control. The “level of p-Her2 protein” value in the data set on activated Her2 (p-Her2) amounted to 0.37 fold. Moreover, in the data set on Her2, the “level of Her2 protein” value was found to be 0.72 fold. In the data set with MCF10F, the IC50 is 42 µg/mL (≈ 62.1 µM).
